From patent publication US6204220A, “Substituted 2-oxo-3-alkynoic acids and methods of use thereof” (Rutgers, The State University of New Jersey, priority 1999, dated 2001)
Like-named read-outs stand apart in the source and are kept apart here.

Assays:
[1] = target: T1, C259N variant of 1-lip PDHc (Escherichia coli, UniProt P0AFG8, C260N); assay: Inactivation of C259N variant of 1-lip PDHc; format: biochemical, E. coli; conditions: butynoic acid at 1 mM
T1 construct: made in house; host or cells: E. coli JRG1342 (PDHc null), Ptac plasmid pGS596
Procedure: (§1) FIG. 6. Inactivation of 1-lip PDHc and its C259N and C259S variants by 2-oxo-3-butynoic acid. 1-lip PDHc (0.162 mg/mL) or the C259N and C259S variants of 1-lip PDHc (0.162 mg/mL) in 20 mM KH2 PO4 buffer, pH 7.5, containing 1 mM ThDP and 5 mM MgCl2 were incubated in the absence (curve 1: 1-lip PDHc and C259N variant) or in the presence of 1 mM of 2-oxo-3-butynoic acid (curve 2: the C259N variant; curve 3: 1-lip PDHc and the C259S variant) in a total volume 0.5 mL in the dark. At different times, aliquots of 50 μL were withdrawn and the overall activity was measured as described in FIG. 1A.
(§2) Bacterial strains and plasmids for PDHc. Derivatives of the PDHc null strain, E. coli JRG1342 contained Ptac expression plasmids encoding PDHc with E2 chains bearing three lipoyl domains (3-lip PDHc; pGS523, the wild type parental complex), or a single lipoyl domain in each E2 subunit (1-lip PDHc; pGS501), and variant 1-lip PDH complexes with mutations in the E1 gene leading to C259S (pGS457) and C259N (pGS596) substitutions (Machado et al., 1992; Machado, 1993).
(§3) Inactivation of 1-lip and 3-lip PDH complexes and resolved E1 component by 2-oxo-3-alkynoic acids. […]

[2] = target: T2, C259S variant of 1-lip PDHc (Escherichia coli, UniProt P0AFG8, C260S); assay: Inactivation of C259S variant of 1-lip PDHc; format: biochemical, E. coli; conditions: butynoic acid at 1 mM
T2 construct: made in house; host or cells: E. coli JRG1342 (PDHc null), Ptac plasmid pGS457
Procedure: as §1, §2, §3

[3] = target: T3, Pyruvate oxidase from Lactobacillus plantarum (Lactiplantibacillus plantarum, UniProt P37063); assay: Inactivation of pyruvate oxidase (POX); format: biochemical; conditions: for kinact/KI: read-out: kc/Ki,c (converted)
T3 construct: purchased Boehringer Mannheim (a gift, not bought)
T3 sequence (P37063 1-603): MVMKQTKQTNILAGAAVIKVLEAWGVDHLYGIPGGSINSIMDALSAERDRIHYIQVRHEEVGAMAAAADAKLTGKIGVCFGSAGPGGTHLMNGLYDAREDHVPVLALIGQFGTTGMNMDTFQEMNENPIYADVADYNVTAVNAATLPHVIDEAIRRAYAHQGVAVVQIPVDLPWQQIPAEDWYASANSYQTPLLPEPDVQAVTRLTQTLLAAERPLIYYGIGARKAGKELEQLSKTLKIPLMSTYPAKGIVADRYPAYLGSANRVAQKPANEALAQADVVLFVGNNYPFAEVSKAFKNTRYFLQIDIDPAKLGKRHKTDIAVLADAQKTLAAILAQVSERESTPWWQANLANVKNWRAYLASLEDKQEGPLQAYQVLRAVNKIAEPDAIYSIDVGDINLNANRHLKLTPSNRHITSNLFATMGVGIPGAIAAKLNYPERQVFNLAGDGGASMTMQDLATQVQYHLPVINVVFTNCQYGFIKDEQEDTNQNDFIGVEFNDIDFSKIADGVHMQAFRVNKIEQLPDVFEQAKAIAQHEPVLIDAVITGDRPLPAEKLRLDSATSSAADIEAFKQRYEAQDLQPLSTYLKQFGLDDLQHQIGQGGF
Procedure: Pyruvate oxidase from Lactobacillus plantarum was a gift from Boehringer Mannheim and was assayed according to the manufacturer's instructions at 25° C. by measuring the rate of 4-quinonimine production from H2 O2, 3,5-dichlorophenolsulfonic acid and 4-aminoantipyrine in the presence of horseradish peroxidase, at 546 nm, using a Cobas-Bio (Roche Diagnostics, Somerville, N.J.) automated centrifugal analyzer. The assay reaction mixture (total vol. 0.25 mL) contained: 40 mM sodium pyruvate; 50 mM potassium phosphate buffer, pH 6.5 with 10% (v/v) glycerol; 6.8 mM 3,5-dichlorophenolsulfonic acid; 0.03% of 4-aminoantipyrine; and 5u/mL of horseradish peroxidase. The reaction was initiated by adding POX.

resolved E1 = target: T4, resolved E1 (Escherichia coli, UniProt P0AFG8); assay: Non-oxidative formation of acetoin and acetolactate by resolved E1; format: biochemical, E. coli
T4 construct: made in house; host or cells: resolved from PDHc expressed in E. coli JRG1342
Procedure: Assay for the non-oxidative formation of acetoin and acetolactate by resolved E1. The reaction mixture contained in 0.8 mL of 50 mM KH2 PO4 buffer, pH 7.5: ThDP (1 mM); MgCl2 (2 mM); pyruvate (2 mM) and resolved E1 (0.04-0.1 mg). After 2 h at 37° C. the reaction was stopped by the addition of either 0.1 mL of 2.5 N NaOH (acetoin assay), or 0.02 mL of 6 N HCl (acetolactate assay), according to Kuwana et al. (1968). Tubes for acetolactate measurement were incubated for an additional 2 h at 37° C. to decarboxylate the acetolactate to acetoin. Acetoin was determined according to Westerfeld (1945). The activity is defined as nmoles of acetoin formed per min per mg protein.

E1 = target: T5, E1 (Escherichia coli, UniProt P0AFG8); assay: Fluorescence measurements on binding to E1; parameters: species or system E. coli
T5 construct: made in house; host or cells: resolved from PDHc expressed in E. coli JRG1342
Procedure: Fluorescence measurements on the binding of 2-oxo-3-butynoic acid to E1. The fluorescence spectrum of apo-E1 (enzyme having no activity in the absence of ThDP) was measured using the SLM8100 spectrofluorimeter at 25° C. The excitation wavelength was 295 nm and the emission spectrum, presumably due to tryptophan, was recorded in the 300-450 nm range in a 1 mL or 3 mL quartz cuvette. The concentration of apo-E1 was 0.05-0.175 mg/mL in 20 mM KH2 PO4 buffer, pH 7.5. The excitation and emission monochromator slit widths were 4 nm. The V.3.0 software and KaleidaGraph computer program were used for data processing. The emission maximum for tryptophan (λ=335 nm) was determined by fitting the points from the peak using the KaleidaGraph computer program.

[4] = E1 treated with 3.7 mM inhibitor, At = 11.5%
[5] = E1 with 11.5% overall activity remaining

T5 sequence (P0AFG8 2-887): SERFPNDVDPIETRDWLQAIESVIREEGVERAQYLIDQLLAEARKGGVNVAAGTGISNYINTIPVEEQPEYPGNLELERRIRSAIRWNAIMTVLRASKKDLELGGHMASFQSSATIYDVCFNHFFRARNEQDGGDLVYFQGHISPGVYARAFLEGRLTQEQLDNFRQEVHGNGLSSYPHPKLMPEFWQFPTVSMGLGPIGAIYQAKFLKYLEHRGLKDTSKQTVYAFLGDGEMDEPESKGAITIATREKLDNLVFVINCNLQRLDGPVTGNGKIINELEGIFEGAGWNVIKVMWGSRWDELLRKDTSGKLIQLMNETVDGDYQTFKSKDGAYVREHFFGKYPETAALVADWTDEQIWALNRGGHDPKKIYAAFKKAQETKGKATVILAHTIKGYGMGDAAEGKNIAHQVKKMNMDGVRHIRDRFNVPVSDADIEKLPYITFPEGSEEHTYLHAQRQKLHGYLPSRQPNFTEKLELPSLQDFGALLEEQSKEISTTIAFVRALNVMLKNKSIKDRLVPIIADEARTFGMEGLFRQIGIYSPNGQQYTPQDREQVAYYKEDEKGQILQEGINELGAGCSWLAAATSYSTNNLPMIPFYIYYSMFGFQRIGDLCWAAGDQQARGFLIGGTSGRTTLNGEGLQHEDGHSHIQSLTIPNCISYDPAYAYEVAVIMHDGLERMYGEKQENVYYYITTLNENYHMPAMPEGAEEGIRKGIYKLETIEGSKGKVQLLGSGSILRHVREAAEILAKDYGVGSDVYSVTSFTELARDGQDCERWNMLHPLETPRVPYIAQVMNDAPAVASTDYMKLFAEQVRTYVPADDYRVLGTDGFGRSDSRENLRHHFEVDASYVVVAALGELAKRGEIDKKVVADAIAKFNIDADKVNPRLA
T4 sequence (P0AFG8 2-887): as above
T2 sequence (P0AFG8 2-887 C260S): as the sequence (P0AFG8 2-887) above, with C259S counted along it
T1 sequence (P0AFG8 2-887 C260N): as the sequence (P0AFG8 2-887) above, with C259N counted along it

SMILES | inactivation of C259N variant [1] | inactivation of C259S variant [2] | inhibition / inactivation of POX (in words) [3] | saturation by inhibitor ([3]; POX) | Ki ([3]; POX, read-out: Ki,c) [µM] | kinact/KI ([3]; POX) [M⁻¹ s⁻¹] | kinact ([3]; POX, read-out: ki (converted)) [s⁻¹] | Acetoin production (resolved E1; [4]) [nmol/min/mg protein] | Acetolactate production (resolved E1; [4]) [nmol/min/mg protein] | Acetoin production relative to uninhibited E1 (resolved E1; [5]) [%] | Acetolactate production relative to uninhibited E1 (resolved E1; [5]) [%] | decrease of fluorescence intensity (E1; 0.033 mM inhibitor) | decrease of fluorescence intensity (E1; 0.1 mM inhibitor) [%] | decrease of fluorescence intensity of E1 at 335 nm (E1; 0.11 mM, E1 0.173 mg/ml, ThDP 0.2 mM, MgCl2 1 mM) | first-order rate constant of fluorescence intensity decrease, slow phase (E1; absence of added ThDP, 0.11 mM) [min⁻¹] | kinact/KI ([3]; POX, from linear portion at high inhibitor concentrations (d)) [M⁻¹ s⁻¹] | kinact/KI ([3]; POX, from linear portion at low inhibitor concentrations (c)) [M⁻¹ s⁻¹]
C#CC(=O)C(=O)O [2-oxo-3-butynoic acid, 2-Oxo-3-butynoic acid] | inactivated | inactivated | irreversibly inactivates | yes | 951 | 4.7 | 0.00447 | 1.52 ± 0.08 | 0.51 ± 0.083 | 30 | 36 | about 35% | 66 | about 66% | 0.042 |  | 
CCCC#CC(=O)C(=O)O [2-oxo-3-heptynoic acid, 2-Oxo-3-heptynoic acid] |  |  | inhibit | no |  |  |  |  |  |  |  |  |  |  |  | 0.32 | 0.0615
